What all share (assay): NCI-60 cell line screen, 48 h
For test [1], the system named is SK-MEL-5 melanoma.
In test [2] the test system is HCT-15 colon.
Test [3] has as its system CCRF-CEM leukemia.
Test [4] relates to K-562 leukemia.
The subject of test [5] is ACHN renal.
In test [6] the test system is OVCAR-4 ovarian.
The test system of test [7] is CAKI-1 renal.
In test [8] the test system is IGROV1 ovarian.
The test system of test [9] is SNB-19 CNS.
For test [10], the system named is KM12 colon.

Each structure is given as a SMILES string.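 How tested: cells in 96-well plates exposed to compound for 48 hours at five concentrations. GI50 is the concentration that inhibits growth by half. TGI: concentration producing complete growth inhibition.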 Some results are limits rather than exact numbers.

As to `COc1ccc(C2=NN(c3ccc(S(N)(=O)=O)cc3)C(c3ccc(Cl)cc3)C2)c(O)c1` (centres undefined), the GI50 in test [1] is 6.24 µM; in test [2], 2.98 µM; in test [3], 2.39 µM; in test [4] it was 1.8 µM; in test [5], 3.58 µM; in test [6], 4.51 µM. Besides, the GI50 is 2.67 µM in test [7], 3.63 µM in [8], 10.8 µM in [9] and 2.67 µM in test [10]. For the same compound, the TGI is 19.1 µM in test [1]; 13.9 µM in test [2]; 6.92 µM in test [3]; 4.09 µM in test [4]; 50.6 µM in test [5]; 37.5 µM in test [6]. Besides, the TGI in test [7] worked out at 8.64 µM; in [8], 15.2 µM; in test [9] it was 65.1 µM; in test [10], 7.91 µM.
Consider `C/C(=N\NC(=S)Nc1ccccc1)c1ccccn1`, for which the GI50 in [1] was 0.199 µM; in test [2], 0.0338 µM; in test [3], under 0.01 µM; in test [4] it was under 0.01 µM; in test [5] it was 0.0335 µM; in test [6], 0.0362 µM. Moreover, the GI50 in [7] is 0.185 µM; in test [8] it was under 0.0163 µM; in test [9], 1.1 µM; in [10] it was 0.143 µM. Moreover, the TGI in [1] is 1.56 µM; in test [2], 13.2 µM; in [3], over 100 µM; in [4] it was 6.93 µM; in test [5] it was 3.75 µM; in [6], 1.78 µM. Also, the TGI is 8.74 µM in test [7], 9.26 µM in test [8], 16.4 µM in test [9] and 2.29 µM in [10].
As for `CCN1CCC(O)(c2ccccc2)C(C(=O)c2ccccc2)C1` (centres undefined), the TGI is over 100 µM in [1]; over 61.2 µM in test [2]; 38.3 µM in test [3]; over 66 µM in [4]; 30.5 µM in test [5]; 32.8 µM in test [6]. Besides, the TGI was 19.3 µM in [7], over 100 µM in test [8], over 100 µM in test [9] and over 100 µM in test [10].
Consider `Nc1cc2c3c(cccc3c1)C(=O)N(CCN1CCN(CCN3C(=O)c4cccc5cc(N)cc(c45)C3=O)CC1)C2=O`, for which the TGI in test [1], in [2], in test [3], in [4], in test [5] and in test [6] was over 100 µM each time. Also, the TGI in test [7], in [8], in test [9] and in [10] was over 100 µM throughout.
With `O=C(Nc1ccc(Cl)cc1)C(=O)C1=C(O)c2ccccc2OC1`, the TGI in test [1], in [2], in test [3], in test [4], in [5] and in [6] was over 100 µM in each case. Also, the TGI in test [7], in test [8], in test [9] and in test [10] was over 100 µM throughout.
Turning to `C/C=C(\C)C(=O)O[C@@H]1C=CC(=O)O[C@H]1COC(=O)[C@H](C)O`, the GI50 in test [1] was 12.6 µM; in test [2] it was 5.68 µM; in test [3], 0.733 µM; in test [4], 5.21 µM; in test [5], 6.16 µM; in test [6] it was 11.5 µM. Also, the GI50 in [7] was 27 µM; in test [8] it was 7.46 µM; in test [9], 19.8 µM; in test [10], 13.3 µM. Moreover, the TGI in [1] was 25.1 µM; in test [2] it was 19.5 µM; in [3], 17 µM; in [4] it was over 100 µM; in [5], 19 µM; in test [6] it was 31 µM. Further, the TGI in test [7] is 42.9 µM; in test [8] it was 24.6 µM; in test [9], 56 µM; in test [10], 27 µM.
On to `Nc1ncn([C@@H]2C=C(CO)C(O)C2O)c(=O)n1` (some centres undefined), for which the TGI in test [1], in test [2], in [3], in test [4], in test [5] and in test [6] was over 100 µM in each case. Further, the TGI in [7], in [8], in test [9] and in [10] was over 100 µM each time.
As to `O=C1c2cccnc2-c2nc(-c3ccccc3)cc3c2c1nc1ccccc13`, the GI50 in test [1] is 1.27 µM; in test [2] it was 1.13 µM; in [3] it was 2.98 µM; in test [4], 0.658 µM; in test [5], 1.09 µM; in test [6] it was 4.33 µM. Also, the GI50 in test [7] is 6.67 µM; in test [8], 2.35 µM; in test [9], 3.71 µM; in test [10], 4.61 µM. For the same compound, the TGI in [1] was found to be 3.88 µM; in [2] it was 5.02 µM; in test [3], 29.7 µM; in test [4] it was 3.91 µM; in [5], 8 µM; in [6] it was 10.1 µM. The TGI is 17.5 µM in [7], 8.92 µM in [8], 20.1 µM in [9] and 16.1 µM in test [10].
Turning to `Cc1ccc(C)c(NC(=O)CCC(=O)CC(=O)C(C)(C)C)c1`, the TGI in [1], in test [2], in test [3], in test [4], in [5] and in [6] was over 100 µM in each case. Besides, the TGI in test [7], in test [8], in test [9] and in [10] was over 100 µM each time.
Take `NCCCNCCCNc1nc2ccccc2c2[nH]c3ccccc3c12`: the GI50 was 0.362 µM in test [1]; 0.307 µM in [2]; 0.126 µM in test [3]; 0.0578 µM in test [4]; 0.112 µM in test [5]; 0.198 µM in test [6]. The GI50 in test [7] was 0.458 µM; in test [8], 0.0837 µM; in test [9] it was 0.0785 µM; in test [10], 0.684 µM. Further, the TGI in test [1] is 1.81 µM; in test [2], 4.95 µM; in test [3] it was 2.42 µM; in [5], 2.82 µM; in test [6], 1.39 µM; in test [7], 2.31 µM. Also, the TGI in test [8] was 1.03 µM; in test [9] it was 1.42 µM; in test [10] it was 3.93 µM.
As for `c1ccc(COc2ccc(Nc3ncnc4ccc(-c5ccco5)cc34)cc2)cc1`, the GI50 in [1] is 2.96 µM; in [2], 4.3 µM; in test [3], 7.76 µM; in [4], 9.74 µM; in test [5], 6.75 µM; in [6], 4.69 µM. In addition, the GI50 was 2.19 µM in test [7], 7.11 µM in [8], 12.7 µM in [9] and 6.09 µM in [10]. The TGI in [1] was 6.79 µM; in [2], 12.3 µM; in [3] it was over 25 µM; in [4] it was over 25 µM; in test [5] it was over 25 µM; in test [6], 17.1 µM. Besides, the TGI was over 25 µM in [7], over 23.1 µM in test [8], over 25 µM in test [9] and 14.7 µM in test [10].
As to `CC1(C)OCC(C2OC(On3nnc4ccc(Cl)cc43)C3OC(C)(C)OC23)O1` (centres undefined), the TGI in [1], in test [2], in [3], in test [4], in [5] and in test [6] was over 100 µM throughout. Besides, the TGI in test [7], in test [8], in test [9] and in [10] was over 100 µM each time.
Take `COc1cc2c(cc1OCCCN1CCN(CCCOc3cc4c(cc3OC)C(=O)C3CCC[C@H]3C=N4)CC1)N=C[C@@H]1CCCC1C2=O` (some centres undefined): the GI50 is 2.2 µM in test [1]; 53.9 µM in test [2]; 0.478 µM in [3]; 2.09 µM in test [4]; 55.7 µM in test [5]; 74.3 µM in test [6]. Also, the GI50 in test [7] is 26.5 µM; in test [8] it was 3.27 µM; in test [9], 23.7 µM; in test [10], 22.7 µM. The TGI in test [1] is 6.4 µM; in test [2], over 100 µM; in test [3] it was over 74.3 µM; in [4], over 100 µM; in [5], over 100 µM; in [6], over 100 µM. In addition, the TGI is over 79.8 µM in test [7], over 23.6 µM in test [8], over 100 µM in [9] and over 100 µM in test [10].
As for `COc1cccc(C2C3=C(COC3=O)N(CCO)c3cc4c(cc32)CCC4)c1` (centres undefined), the GI50 in test [1] was 0.0204 µM; in [2], 0.122 µM; in test [3], 0.122 µM; in [4] it was 0.0279 µM; in test [5] it was 0.0622 µM; in test [6] it was 0.114 µM. The GI50 is 0.132 µM in test [7], 0.0169 µM in [8], 0.0468 µM in test [9] and 0.0219 µM in test [10]. Moreover, the TGI is 0.436 µM in test [1]; over 22.2 µM in test [2]; over 50 µM in test [3]; 8.81 µM in test [4]; over 50 µM in test [5]; over 50 µM in test [6]. Besides, the TGI is over 50 µM in [7], 0.0692 µM in test [8], 0.321 µM in test [9] and 0.443 µM in [10].
`CCOC(=O)C1=C(O)CSC1=Nc1ccc(N=C2SCC(O)=C2C(=O)OCC)cc1`: the TGI in [1] was 44.3 µM; in test [2] it was 57.7 µM; in [3], over 100 µM; in test [4] it was over 100 µM; in test [5] it was 67.4 µM; in test [6], 94.8 µM. For the same compound, the TGI in [7] is 30.8 µM; in test [8], 60.6 µM; in [9] it was over 100 µM; in test [10], 44.9 µM.
As to `OCCC#Cc1ccccc1C#Cc1ccccc1`, the GI50 in [1] is 12 µM; in test [2], 11.6 µM; in test [3] it was 25.9 µM; in [4] it was 11 µM; in test [5] it was 17.2 µM; in [6], 24.1 µM. Besides, the GI50 was 12.6 µM in test [7], 33.4 µM in test [8], 28.1 µM in [9] and 7.18 µM in test [10]. The TGI in test [1] was 25.3 µM; in [2], 24.8 µM; in [3], over 100 µM; in [4], over 100 µM; in [5], 36.4 µM; in test [6], 72.4 µM. The TGI is 25.2 µM in test [7], over 100 µM in test [8], over 100 µM in [9] and 17.2 µM in test [10].

The record behind these values is PubChem BioAssay (NCI).
